The source of these data is patent US20250383357A1, “NOVEL FLUORESCENT DYES AND POLYMERS FROM DIHYDROPHENANTHRENE DERIVATIVES” (Beckman Coulter, Inc., priority 2022, published 2025).

A short description of this data set: Fluorescence properties of DHP-cyanine dyes (excitation/absorbance and emission maxima, extinction coefficient). It counts as physicochemical. Conditions: for λem (emission wavelength) / λex (maximum excitation wavelength): Table 1. The source says: The term “absorbance maxima” or “Abs λ max” or “max λ abs” refer to wavelength of maximum absorbance measured by UV Vis spectroscopy.

The structures appear in SMILES notation.

As to `CC1(C)C(/C=C/C=C/C=C2\N(CCCS(=O)(=O)O)c3ccc(C(=O)O)cc3C2(C)C)=[N+](CCCS(=O)(=O)O)c2cc3c4c(c21)CCc1cc(S(=O)(=O)[O-])cc(c1-4)S3(=O)=O` [Compound 25, (Z)-2-((2E,4E)-5-(2-((l1-oxidaneyl)dioxo-l6-sulfaneyl)-6-(3-((l1-oxidaneyl)dioxo-l6-sulfaneyl)propyl)-8,8-dimethyl-4,4-dioxido-9,10-dihydro-8H-6l4-thieno[2′,3′,4′,5′:4,5]phenanthro[2,1-b]pyrrol-7-yl)penta-2,4-dien-1-ylidene)-1-(3-((l1-oxidaneyl)dioxo-l6-sulfaneyl)propyl)-3,3-dimethylindoline-5-carboxylic Acid], the “λem (emission wavelength)” value worked out at 686 nm and the “λex (maximum excitation wavelength)” value is on record as 666 nm. Where the note is “purified dye”, this molecule came in with an Abs max of 666 nm, an emission max of 686 nm and an extinction coefficient of 150450 M⁻¹ cm⁻¹.
For `CC1(C)Cc2c3c(cc4c2C(C)(C)C(/C=C/C=C/C=C2\N(CCCCCC(=O)O)c5ccc(S(=O)(=O)O)cc5C2(C)C)=[N+]4CCCS(=O)(=O)O)S(=O)(=O)c2cc(S(=O)(=O)O)cc1c2-3` [Compound 36, 2-((l1-oxidaneyl)dioxo-l6-sulfaneyl)-7-((1E,3E)-5-((Z)-5-((l1-oxidaneyl)dioxo-l6-sulfaneyl)-1-(5-carboxypentyl)-3,3-dimethylindolin-2-ylidene)penta-1,3-dien-1-yl)-6-(3-((l1-oxidaneyl)dioxo-l6-sulfaneyl)propyl)-8,8,10,10-tetramethyl-9,10-dihydro-8H-thieno[2′,3′,4′,5′:4,5]phenanthro[2,1-b]pyrrol-6-ium 4,4-dioxide], the “λem (emission wavelength)” value worked out at 683 nm and the “λex (maximum excitation wavelength)” value was determined as 663 nm. For the same molecule, under “purified dye”, the Abs max turned out to be 663 nm and the emission max worked out at 683 nm.
